According to patent US20100298141A1, “SUBSTITUTED PYRIDINE N-OXIDE HERBICIDES” (E. I. DU PONT DE NEMOURS AND COMPANY, priority 2007, published 2010):

What was measured:
yellow nutsedge = assay: Test C pre-/postemergence test; assay type: in vivo, Cyperus esculentus; conditions: for Plant response rating, Nutsedge, Yellow: 31 g ai/ha, scale 0 to 100 (0 no effect, 100 complete control)
Procedure, shortened: (§1)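 Test chemicals were formulated with surfactant in a non-phytotoxic solvent and sprayed both on freshly planted seeds (preemergence) and on 1- to 4-leaf plants of 2–18 cm (postemergence). Flooded-paddy pots received compound directly into 3 cm of standing water, maintained for the test.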

giant foxtail [1] = assay: Test C pre-/postemergence test; assay type: in vivo, Setaria faberii; conditions: for Plant response rating, Foxtail, Giant: 31 g ai/ha, scale 0 to 100 (0 no effect, 100 complete control)
Procedure, shortened: as §1

cocklebur = assay: Test C pre-/postemergence test; assay type: in vivo, Xanthium strumarium; conditions: for Plant response rating, Cocklebur: 31 g ai/ha, scale 0 to 100 (0 no effect, 100 complete control)
Procedure, shortened: as §1

woolly cupgrass = assay: Test C pre-/postemergence test; assay type: in vivo, Eriochloa villosa; conditions: for Plant response rating, Cupgrass, Woolly: 31 g ai/ha, scale 0 to 100 (0 no effect, 100 complete control)
Procedure, shortened: as §1

soybean = assay: Test C pre-/postemergence test; assay type: in vivo, Glycine max; conditions: for Plant response rating, Soybean: 31 g ai/ha, scale 0 to 100 (0 no effect, 100 complete control)
Procedure, shortened: as §1

corn = assay: Test C pre-/postemergence test; assay type: in vivo, Zea mays; conditions: for Plant response rating, Corn: 31 g ai/ha, scale 0 to 100 (0 no effect, 100 complete control)
Procedure, shortened: as §1

common ragweed = assay: Test C pre-/postemergence test; assay type: in vivo, Ambrosia elation
Procedure, shortened: as §1

crabgrass = assay: Test A pre-/postemergence greenhouse test; assay type: in vivo, Digitaria sanguinalis; conditions: for Plant response rating, Crabgrass, Large: 0 to 100 scale where 0 is no effect and 100 is complete control; for Crabgrass, Large plant response rating: 0 to 100 scale
Procedure, shortened: (§2)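 Test compounds in non-phytotoxic solvent with surfactant were applied as a preemergence soil spray to seeded loam/sand pots and, concurrently, postemergence to plants at 2–10 cm, one- to two-leaf stage. About ten days in greenhouse, then injury visually rated against untreated controls.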

lambsquarters = assay: Test C pre-/postemergence test; assay type: in vivo, Chenopodium album; conditions: for Plant response rating, Lambsquarters: 31 g ai/ha, scale 0 to 100 (0 no effect, 100 complete control)
Procedure, shortened: as §1

downy brome = assay: Test C pre-/postemergence test; assay type: in vivo, Bromus tectorum
Procedure, shortened: as §1

giant foxtail [2] = assay: Test A pre-/postemergence greenhouse test; assay type: in vivo, Setaria faberi; conditions: for Plant response rating, Foxtail, Giant: 0 to 100 scale where 0 is no effect and 100 is complete control; for Foxtail, Giant plant response rating: 0 to 100 scale
Procedure, shortened: as §2

wheat = assay: Test A pre-/postemergence greenhouse test; assay type: in vivo, Triticum aestivum; conditions: for Plant response rating, Wheat: 0 to 100 scale where 0 is no effect and 100 is complete control; for Wheat plant response rating: 0 to 100 scale
Procedure, shortened: as §2

morningglory [3] = assay: Test A pre-/postemergence greenhouse test; assay type: in vivo, Ipomoea spp.; conditions: for Plant response rating, Morningglory: 0 to 100 scale where 0 is no effect and 100 is complete control; for Morningglory plant response rating: 0 to 100 scale
Procedure, shortened: as §2

umbrella sedge = assay: Test C flooded paddy test; assay type: in vivo, Cyperus difformis; conditions: Flood
Procedure, shortened: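 Flooded 3 cm over soil; compound into paddy water; depth kept constant. Greenhouse 13–15 d.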

morningglory [4] = assay: Test C pre-/postemergence test; assay type: in vivo, Ipomoea coccinea
Procedure, shortened: as §1

Goosegrass = assay: Test C pre-/postemergence test; assay type: in vivo, Eleusin indica; conditions: for Plant response rating, Goosegrass: 31 g ai/ha, scale 0 to 100 (0 no effect, 100 complete control)
Procedure, shortened: as §1

johnsongrass = assay: Test C pre-/postemergence test; assay type: in vivo, Sorghum halepense; conditions: for Plant response rating, Johnsongrass: 31 g ai/ha, scale 0 to 100 (0 no effect, 100 complete control)
Procedure, shortened: as §1

[5] = 62 g ai/ha, Preemergence, scale 0 to 100
[6] = 125 g ai/ha, preemergence, scale 0 (no effect) to 100 (complete control)
[7] = preemergence, 250 g ai/ha, scale 0 (no effect) to 100 (complete control)
[8] = Postemergence, 500 g ai/ha, 0 is no effect, 100 is complete control
[9] = Preemergence, 125 g ai/ha, 0 no effect, 100 complete control
[10] = Preemergence, 31 g ai/ha, scale 0 to 100 (0 no effect, 100 complete control)
[11] = 62 g ai/ha, scale 0 to 100 (0 no effect, 100 complete control)
[12] = 250 g ai/ha, scale 0 to 100, 0 no effect, 100 complete control, 13 to 15 days

C#CCOc1c(C[S+]([O-])c2cccc[n+]2[O-])c(C(F)(F)F)nn1C (centres unmarked) [Compound 76]
95: Nutsedge, Yellow plant response rating (yellow nutsedge; [7]) | Cupgrass, Woolly plant response rating (woolly cupgrass; [6]) | Soybean plant response rating (soybean; [7]) | Goosegrass plant response rating (Goosegrass; [5]) | Johnsongrass plant response rating (johnsongrass; [5])
80: Nutsedge, Yellow plant response rating (yellow nutsedge; [6]) | Soybean plant response rating (soybean; [6]) | Corn plant response rating (corn; [5]) | Crabgrass, Large plant response rating (crabgrass; [9]) | Plant response rating, Foxtail, Giant (giant foxtail [2]; Postemergence, 125 g ai/ha) | Plant response rating, Goosegrass (Goosegrass; Preemergence)
40: Soybean plant response rating (soybean; [5])
75: Plant response rating, Foxtail, Giant (giant foxtail [1]; Preemergence)
45: Bromegrass, Downy plant response rating (downy brome; [5])
20: Ragweed plant response rating (common ragweed; [5]) | Plant response rating, Wheat (wheat; Postemergence, 125 g ai/ha) | Wheat plant response rating (wheat; [9]) | Morningglory plant response rating (morningglory [4]; [5])
50: Nutsedge, Yellow plant response rating (yellow nutsedge; [5]) | Plant response rating, Crabgrass, Large (crabgrass; Postemergence, 125 g ai/ha) | Morningglory plant response rating (morningglory [3]; [9])
98: Goosegrass plant response rating (Goosegrass; [6])
100: Foxtail, Giant plant response rating (giant foxtail [1]; [6]) | Foxtail, Giant plant response rating (giant foxtail [1]; [7]) | Cupgrass, Woolly plant response rating (woolly cupgrass; [7]) | Corn plant response rating (corn; [6]) | Corn plant response rating (corn; [7]) | Ragweed plant response rating (common ragweed; [6]) | Ragweed plant response rating (common ragweed; [7]) | Lambsquarters plant response rating (lambsquarters; [5]) | Lambsquarters plant response rating (lambsquarters; [6]) | Lambsquarters plant response rating (lambsquarters; [7]) | Plant response rating, Foxtail, Giant (giant foxtail [2]; Preemergence, 500 g ai/ha) | Plant response rating, Wheat (wheat; Preemergence, 500 g ai/ha) | Plant response rating, Sedge, Umbrella (umbrella sedge; [12]) | Morningglory plant response rating (morningglory [4]; [6]) | Morningglory plant response rating (morningglory [4]; [7]) | Goosegrass plant response rating (Goosegrass; [7]) | Johnsongrass plant response rating (johnsongrass; [6]) | Johnsongrass plant response rating (johnsongrass; [7])
0: Plant response rating, Nutsedge, Yellow (yellow nutsedge; Preemergence) | Cocklebur plant response rating (cocklebur; [5]) | Cocklebur plant response rating (cocklebur; [6]) | Plant response rating, Cocklebur (cocklebur; Preemergence) | Plant response rating, Cupgrass, Woolly (woolly cupgrass; Preemergence) | Plant response rating, Soybean (soybean; Preemergence) | Plant response rating, Corn (corn; Preemergence) | Plant response rating, Bromegrass, Downy (downy brome; [10]) | Plant response rating, Sedge, Umbrella (umbrella sedge; [11]) | Plant response rating, Morningglory (morningglory [4]; [10])
85: Plant response rating, Lambsquarters (lambsquarters; Preemergence) | Bromegrass, Downy plant response rating (downy brome; [7]) | Plant response rating, Johnsongrass (johnsongrass; Preemergence)
60: Bromegrass, Downy plant response rating (downy brome; [6]) | Wheat plant response rating (wheat; [8])
10: Cocklebur plant response rating (cocklebur; [7])
90: Foxtail, Giant plant response rating (giant foxtail [1]; [5]) | Crabgrass, Large plant response rating (crabgrass; [8]) | Plant response rating, Crabgrass, Large (crabgrass; Preemergence, 500 g ai/ha) | Foxtail, Giant plant response rating (giant foxtail [2]; [8]) | Foxtail, Giant plant response rating (giant foxtail [2]; [9]) | Morningglory plant response rating (morningglory [3]; [8]) | Plant response rating, Morningglory (morningglory [3]; Preemergence, 500 g ai/ha)
70: Cupgrass, Woolly plant response rating (woolly cupgrass; [5]) | Plant response rating, Morningglory (morningglory [3]; Postemergence, 125 g ai/ha)

Cn1nc(C(F)(F)F)c(C[S+]([O-])c2ccc(Cl)c[n+]2[O-])c1OCC(F)F (centres unmarked) [Compound 85]
100: Foxtail, Giant plant response rating (giant foxtail [1]; [5]) | Foxtail, Giant plant response rating (giant foxtail [1]; [7]) | Cupgrass, Woolly plant response rating (woolly cupgrass; [7]) | Soybean plant response rating (soybean; [5]) | Plant response rating, Soybean (soybean; Preemergence) | Soybean plant response rating (soybean; [7]) | Ragweed plant response rating (common ragweed; [5]) | Ragweed plant response rating (common ragweed; [6]) | Plant response rating, Ragweed (common ragweed; [10]) | Ragweed plant response rating (common ragweed; [7]) | Plant response rating, Crabgrass, Large (crabgrass; Preemergence, 500 g ai/ha) | Lambsquarters plant response rating (lambsquarters; [5]) | Lambsquarters plant response rating (lambsquarters; [6]) | Plant response rating, Lambsquarters (lambsquarters; Preemergence) | Lambsquarters plant response rating (lambsquarters; [7]) | Bromegrass, Downy plant response rating (downy brome; [7]) | Foxtail, Giant plant response rating (giant foxtail [2]; [9]) | Plant response rating, Foxtail, Giant (giant foxtail [2]; Preemergence, 500 g ai/ha) | Plant response rating, Morningglory (morningglory [3]; Preemergence, 500 g ai/ha) | Morningglory plant response rating (morningglory [4]; [7]) | Goosegrass plant response rating (Goosegrass; [5]) | Goosegrass plant response rating (Goosegrass; [6]) | Plant response rating, Goosegrass (Goosegrass; Preemergence) | Goosegrass plant response rating (Goosegrass; [7]) | Johnsongrass plant response rating (johnsongrass; [6]) | Johnsongrass plant response rating (johnsongrass; [7])
40: Nutsedge, Yellow plant response rating (yellow nutsedge; [5]) | Nutsedge, Yellow plant response rating (yellow nutsedge; [6]) | Plant response rating, Nutsedge, Yellow (yellow nutsedge; Preemergence)
70: Plant response rating, Crabgrass, Large (crabgrass; Postemergence, 125 g ai/ha) | Bromegrass, Downy plant response rating (downy brome; [6]) | Wheat plant response rating (wheat; [8]) | Wheat plant response rating (wheat; [9]) | Plant response rating, Morningglory (morningglory [3]; Postemergence, 125 g ai/ha)
0: Cocklebur plant response rating (cocklebur; [5]) | Cocklebur plant response rating (cocklebur; [6]) | Plant response rating, Cocklebur (cocklebur; Preemergence) | Cocklebur plant response rating (cocklebur; [7]) | Plant response rating, Sedge, Umbrella (umbrella sedge; 31 g ai/ha, scale 0 to 100 (0 no effect, 100 complete control))
99: Corn plant response rating (corn; [7])
60: Plant response rating, Wheat (wheat; Postemergence, 125 g ai/ha) | Morningglory plant response rating (morningglory [3]; [9]) | Plant response rating, Sedge, Umbrella (umbrella sedge; 125 g ai/ha, scale 0 to 100, 0 no effect, 100 complete control, 13 to 15 days)
90: Crabgrass, Large plant response rating (crabgrass; [8]) | Plant response rating, Foxtail, Giant (giant foxtail [2]; Postemergence, 125 g ai/ha) | Foxtail, Giant plant response rating (giant foxtail [2]; [8]) | Wheat plant response rating (wheat; Preemergence, 500 g ai/ha, 0 no effect, 100 complete control) | Morningglory plant response rating (morningglory [3]; [8]) | Morningglory plant response rating (morningglory [4]; [5]) | Morningglory plant response rating (morningglory [4]; [6])
80: Plant response rating, Cupgrass, Woolly (woolly cupgrass; Preemergence) | Crabgrass, Large plant response rating (crabgrass; [9])
85: Plant response rating, Foxtail, Giant (giant foxtail [1]; Preemergence) | Johnsongrass plant response rating (johnsongrass; [5]) | Plant response rating, Johnsongrass (johnsongrass; Preemergence)
95: Nutsedge, Yellow plant response rating (yellow nutsedge; [7]) | Cupgrass, Woolly plant response rating (woolly cupgrass; [5]) | Cupgrass, Woolly plant response rating (woolly cupgrass; [6]) | Corn plant response rating (corn; [5]) | Plant response rating, Corn (corn; Preemergence) | Plant response rating, Sedge, Umbrella (umbrella sedge; [12])
98: Corn plant response rating (corn; [6])
45: Plant response rating, Sedge, Umbrella (umbrella sedge; [11])
